Molecules are shown by their SMILES.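 Growth conditions: 96-well plates. Treatment: test compound, 48 hours, 5 concentrations. Analysis: linear interpolation between bracketing concentrations; unreached endpoints set to highest concentration. GI50 = concentration required for 50% inhibition of growth. The concentration for full growth arrest is given as TGI.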

Among the test systems are A498 renal; M14 melanoma; DU-145 prostate; SN12C renal; NCI-H23 lung; 786-0 renal; NCI/ADR-RES ovarian; RPMI-8226 leukemia; NCI-H226 lung; MDA-MB-435.
Test in all cases: inhibition of tumour cell growth, NCI panel, 48 h

For `O=C1NC(=O)C(c2cccc(Cl)c2)=C1Nc1ccc(Cl)c(C(=O)O)c1`, the GI50 in the test on A498 renal, in the test on M14 melanoma, in the test with DU-145 prostate, with SN12C renal, in the test with NCI-H23 lung and in the test with 786-0 renal was more than 25 µM in each case. The GI50 with NCI/ADR-RES ovarian, in the test with RPMI-8226 leukemia, in the test with NCI-H226 lung and with MDA-MB-435 was more than 25 µM each time. In addition, the TGI in the test on A498 renal, with M14 melanoma, with DU-145 prostate, in the test with SN12C renal, in the test with NCI-H23 lung and in the test with 786-0 renal was more than 25 µM each time. Moreover, the TGI in the test with NCI/ADR-RES ovarian, with RPMI-8226 leukemia, in the test with NCI-H226 lung and with MDA-MB-435 was more than 25 µM each time.

As to `COc1ccc(C2NN=C3c4ccccc4CCC32)cc1` (stereo not given), the GI50 with A498 renal is 19.4 µM; in the test with M14 melanoma, 6.23 µM; in the test with DU-145 prostate it was 19.2 µM; with SN12C renal, 15.4 µM; in the test on NCI-H23 lung, 12.6 µM; in the test on 786-0 renal it was 53.1 µM. Also, the GI50 was 3.99 µM in the test with NCI/ADR-RES ovarian, 5.36 µM in the test on RPMI-8226 leukemia, more than 100 µM in the test with NCI-H226 lung and 1.57 µM in the test with MDA-MB-435. In addition, the TGI in the test with A498 renal is 65 µM; in the test on M14 melanoma, more than 100 µM; with DU-145 prostate, 72.6 µM; in the test with SN12C renal, 79.5 µM; with NCI-H23 lung it was 93.3 µM; with 786-0 renal, more than 100 µM. For the same compound, the TGI in the test with NCI/ADR-RES ovarian is 38.3 µM; with RPMI-8226 leukemia it was 85.4 µM; with NCI-H226 lung, more than 100 µM; in the test with MDA-MB-435 it was 3.62 µM.

Source of the values: PubChem BioAssay (NCI).
